From ChEMBL document CHEMBL2073829, “Heterologous expression of a mammalian ABC transporter in plant and its application to phytoremediation” (Plant Mol Biol, 2006)

Molecular target: Multidrug resistance-associated protein 1 (Homo sapiens, UniProt P33527)
Assay: TP_TRANSPORTER: growth inhibition in hMRP1-expressing tobacco
Format: functional, organism-based, (cultivar) Samsun NN
Conditions: nicotiana tabacum, in vivo

Multidrug resistance-associated protein 1, sequence (P33527 whole entry): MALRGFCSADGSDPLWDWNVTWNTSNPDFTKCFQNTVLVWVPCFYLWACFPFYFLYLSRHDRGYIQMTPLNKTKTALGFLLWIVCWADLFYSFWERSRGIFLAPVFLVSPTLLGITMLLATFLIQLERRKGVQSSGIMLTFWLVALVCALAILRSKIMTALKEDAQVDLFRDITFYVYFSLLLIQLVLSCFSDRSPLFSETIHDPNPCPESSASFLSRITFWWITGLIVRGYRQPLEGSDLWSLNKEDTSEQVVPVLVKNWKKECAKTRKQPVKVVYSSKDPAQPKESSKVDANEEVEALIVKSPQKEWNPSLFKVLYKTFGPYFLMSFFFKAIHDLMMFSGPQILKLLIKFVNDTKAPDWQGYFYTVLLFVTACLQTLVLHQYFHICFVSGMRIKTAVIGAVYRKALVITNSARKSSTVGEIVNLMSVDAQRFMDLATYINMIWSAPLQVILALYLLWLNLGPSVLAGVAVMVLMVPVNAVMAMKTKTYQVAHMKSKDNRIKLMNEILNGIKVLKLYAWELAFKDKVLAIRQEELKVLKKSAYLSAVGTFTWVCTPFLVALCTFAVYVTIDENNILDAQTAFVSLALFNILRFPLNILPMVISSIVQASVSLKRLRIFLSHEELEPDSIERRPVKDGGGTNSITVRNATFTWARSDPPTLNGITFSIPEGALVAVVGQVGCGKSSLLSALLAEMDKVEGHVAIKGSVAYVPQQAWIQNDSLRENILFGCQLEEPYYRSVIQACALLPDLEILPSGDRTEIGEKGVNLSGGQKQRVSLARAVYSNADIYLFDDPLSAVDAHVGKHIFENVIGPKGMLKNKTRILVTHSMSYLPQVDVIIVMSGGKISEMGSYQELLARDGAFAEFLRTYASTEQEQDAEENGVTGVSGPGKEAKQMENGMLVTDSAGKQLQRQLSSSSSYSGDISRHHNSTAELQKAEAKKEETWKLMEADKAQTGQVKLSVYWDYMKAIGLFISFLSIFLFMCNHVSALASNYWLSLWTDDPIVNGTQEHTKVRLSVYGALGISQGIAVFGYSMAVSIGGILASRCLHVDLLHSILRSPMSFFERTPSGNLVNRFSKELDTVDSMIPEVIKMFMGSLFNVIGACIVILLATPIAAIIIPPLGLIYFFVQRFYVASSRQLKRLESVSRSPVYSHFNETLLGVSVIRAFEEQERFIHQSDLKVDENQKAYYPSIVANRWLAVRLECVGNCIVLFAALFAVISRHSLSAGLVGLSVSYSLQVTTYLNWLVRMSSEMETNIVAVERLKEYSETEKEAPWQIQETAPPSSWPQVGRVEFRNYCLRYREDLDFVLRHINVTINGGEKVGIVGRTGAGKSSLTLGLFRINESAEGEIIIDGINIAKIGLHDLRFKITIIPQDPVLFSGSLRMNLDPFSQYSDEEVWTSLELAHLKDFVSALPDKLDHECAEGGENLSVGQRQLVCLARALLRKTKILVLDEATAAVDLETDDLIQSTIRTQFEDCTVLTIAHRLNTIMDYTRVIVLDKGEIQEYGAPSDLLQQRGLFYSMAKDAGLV

In the case of CADMIUM, the Activity is reported as “substrate []”.
